We go through two compounds from PMC8266232, “Design, synthesis, and analysis of antiproliferative and apoptosis-inducing activities of nitrile derivatives containing a benzofuran scaffold: EGFR inhibition assay and molecular modelling study” (Journal of Enzyme Inhibition and Medicinal Chemistry, 2021).

The subject of assay [1] is HePG2 cells (hepatocellular carcinoma). Kind of assay: MTT antiproliferative assay, HePG2. The assay is classed as cell-based, human. The settings on record: Homo sapiens, HepG2, MTT assay, HePG2, triplicate; read-out: In vitro cytotoxicity IC50, HePG2. How it is done:
(§1) The in vitro antiproliferative activity of all synthesised compounds was evaluated by an MTT assay according to the reported method[47]^,[48].
(§2) 2. Experimental procedure
(§3) 2.1. Antiproliferative screening
(§4) The in vitro antiproliferative activity of all synthesized compounds was evaluated by an MTT assay according to the reported method using five different human cancer cell lines, including […]
(§5) cervical carcinoma (HeLa), and human prostate cancer (PC-3). The cell lines were obtained from ATCC via a holding company for biological products and vaccines (VACSERA), Cairo, Egypt. The MTT assay is a colorimetric assay used for measuring the cellular growth based on the reduction of the yellow MTT to a purple formazan derivative by mitochondrial succinate dehydrogenase in viable cells. The color intensity of the formazan dye is correlated to the number of viable cells. The […]
(§6) IC50% values were calculated using dose response curves. The percentage of relative cell viability was calculated as (A570 of treated samples)/(A570 of untreated sample) × 100. The cytotoxic activity was defined as the concentration of the compound that caused 50% growth inhibition compared with the growth of an untreated cell. […]
On the technique in general: Tetrazolium dyes change colour on reduction, which living cells bring about.

Assay [2] deals with HCT-116 cells (colorectal carcinoma). Briefly: MTT antiproliferative assay, HCT-116. In kind it is cell-based, human. The note with it: Homo sapiens, HCT-116, MTT assay, HCT-116, triplicate; read-out: In vitro cytotoxicity IC50, HCT-116. The procedure:
as §1, §2, §3, §4, §5, §6

The test system of assay [3] is MCF-7 cells (human breast adenocarcinoma). Kind of assay: MTT antiproliferative assay, MCF-7. In kind it is cell-based. The settings on record: Homo sapiens, MCF7, MTT assay, MCF-7, triplicate; read-out: In vitro cytotoxicity IC50, MCF-7. The procedure:
as §1, §2, §3, §4, §5, §6

Assay [4] concerns PC3 cells (human prostate carcinoma). Briefly: MTT antiproliferative assay, PC3. In kind it is cell-based. The note with it: PC-3, PC3, triplicate, read-out: In vitro cytotoxicity IC50, PC3. The procedure:
as §1, §2, §3, §4, §5, §6

Assay [5] has as its system HeLa cells (cervical carcinoma). Kind of assay: MTT antiproliferative assay, HeLa. The settings on record: Homo sapiens, triplicate, read-out: In vitro cytotoxicity IC50, HeLa. The assay is classed as cell-based, human. How it is done: as §1, §2, §3, §4, §5, §6
Assay [6] concerns WI38 normal cell. Briefly: MTT cytotoxicity on normal fibroblast cells. In kind it is cell-based. The settings on record: Homo sapiens, WI-38; MTT assay, non tumour normal cell WI38.
Assay [7] deals with T1, EGFR TK (Homo sapiens, UniProt P00533).
T1 construct: add 20 μl of diluted EGFR enzyme and incubate at 30°C for 40
Kind of assay: EGFR TK inhibition assay (luminescent, Kinase-Glo MAX). In kind it is biochemical. How it is done:
2.2. Epidermal growth factor inhibition assay
In vitro luminescent EGFR tyrosine kinase assay, using Kinase-Glo® MAX as a detection reagent using DP‐Glo™ reagent that measures the adenosine diphosphate (ADP) formed from a kinase reaction, were performed; this luminescent signal positively correlates with ADP amount and kinase activity. In 17 μl of distilled water, 6 μl of Kinase assay buffer and 1 μl ATP and 1 μl PTK substrate were mixed (master mixture). In every well, mix 20 μl of the master mixture and 5 μl of Inhibitor solution (Test Inhibitor) for positive control, and use 5 μl of the same solution without inhibitor (Inhibitor buffer) as the blank solution; add 20 μl of diluted EGFR enzyme and incubate at 30°C for 40
(In Kinase-Glo more light means more ATP remaining.)

The test system of assay [8] is human caspase-3 (active) in MCF-7 cells. Briefly: Caspase-3 ELISA in MCF-7 cells. The assay is classed as cell-based. The procedure:
(§7) Caspases are critical mediators of programmed cell death, that is, apoptosis. Caspase-3 is important in processes involving dissociation of the cell and the formation of the apoptotic element; therefore, it is regarded as one of the best biochemical hallmarks of apoptosis. […] The concentration of active caspase-3 was measured using the ELISA technique. In addition, the fluorescence density produced by the tested compounds is illustrated in Figure 4. […] The level of caspase-3 increased 5.7-fold compared to the control. Moreover, a considerable 7.3-fold increase in the caspase-3 level was detected following the treatment of the MCF-7 cells with compound 11. The bioluminescent intensities of caspase-3 indicated the apoptotic activity of compounds 3 and 11.
(§8) Afterward, measure luminescence using the
(§9) tested in triplicates.[36-38].
(§10) active caspase-3 [49]. […] The tested
(§11) Subsequently, 100 µL of an
(§12) incubated for 30 min at room temperature.
(§13) chromogen. […] The intensity of the resulting colored
In general terms: In an ELISA, binding on a coated surface is turned into a signal by an enzyme label.

Assay [9] relates to MCF-7 cells. Briefly: Annexin V-FITC/PI apoptosis assay, MCF-7. The settings on record: MCF-7, 10 µM, 24 h.
Description: (§14) A comparison was made to the control (DMSO) and reference (gefitinib).
(§15) The cell line samples were analysed using FACSCalibur flow cytometer.
(§16) with PI. The cells were compared with the control, which was treated with DMSO.
Analysis of cellular apoptosis
(§17) concentration, respectively, and then incubated for 24 h. Following incubation, 1 –5 × 10^5 cells were
(§18) harvested and suspended in 500 µ L of the binding buffer, 5 µ L of annexin V-FITC, and 5 µL of PI.
(§19) annexin V-FITC conjugate is specially engineered to produce an enhanced fluorescence signal and
(§20) photostability. The annexin V-FITC kit included annexin V-FITC for detecting apoptosis as well as PI
(§21) for detecting necrosis. Thus, apoptosis and necrosis could be effectively differentiated. Detection and
(§22) analysis of the annexin V-FITC binding by flow cytometry was conducted using a FITC signal
(§23) detector (typically FL1). PI staining was evaluated by a phycoerythrin emission signal detector
For assay [10], the system named is MCF-7 cells. Kind of assay: Cell cycle analysis by PI flow cytometry, MCF-7. The note with it: MCF-7, 10 µM, 24 h.
Description: as §14
(§24) Cell cycle analysis and induction of apoptosis
(§25) Flow cytometry analysis of the cell cycle distribution
(§26) incubation period, the cells were collected, centrifuged, and ﬁxed with ice-cold ethanol (70%). The cells were subsequently treated with a buffer containing RNAse A and 0.1% Triton X-100, and stained
(§27) with PI. The cells were compared with the control, which was treated with DMSO. The DNA content
was measured by flow cytometry [50-52].
The test system of assay [11] is human caspase-3 (active) in HCT-116 cells. Kind of assay: Caspase-3 ELISA in HCT-116 cells. In kind it is cell-based. How it is done: as §7, §8, §9, §10, §11, §12, §13
Assay [12] has as its system HCT-116 cells. Briefly: Annexin V-FITC/PI apoptosis assay, HCT-116. The settings on record: HCT-116, 10 µM, 24 h.
Description: as §14, §15, §16
Analysis of cellular apoptosis
as §17, §18, §19, §20, §21, §22, §23
In assay [13] the test system is HCT-116 cells. Kind of assay: Cell cycle analysis by PI flow cytometry, HCT-116. The settings on record: HCT-116, 10 µM, 24 h.
Description: as §14, §24, §25, §26, §27
was measured by flow cytometry [50-52].

In general, IC50 refers to the concentration that gives 50% inhibition.

T1 sequence (P00533 25-1210): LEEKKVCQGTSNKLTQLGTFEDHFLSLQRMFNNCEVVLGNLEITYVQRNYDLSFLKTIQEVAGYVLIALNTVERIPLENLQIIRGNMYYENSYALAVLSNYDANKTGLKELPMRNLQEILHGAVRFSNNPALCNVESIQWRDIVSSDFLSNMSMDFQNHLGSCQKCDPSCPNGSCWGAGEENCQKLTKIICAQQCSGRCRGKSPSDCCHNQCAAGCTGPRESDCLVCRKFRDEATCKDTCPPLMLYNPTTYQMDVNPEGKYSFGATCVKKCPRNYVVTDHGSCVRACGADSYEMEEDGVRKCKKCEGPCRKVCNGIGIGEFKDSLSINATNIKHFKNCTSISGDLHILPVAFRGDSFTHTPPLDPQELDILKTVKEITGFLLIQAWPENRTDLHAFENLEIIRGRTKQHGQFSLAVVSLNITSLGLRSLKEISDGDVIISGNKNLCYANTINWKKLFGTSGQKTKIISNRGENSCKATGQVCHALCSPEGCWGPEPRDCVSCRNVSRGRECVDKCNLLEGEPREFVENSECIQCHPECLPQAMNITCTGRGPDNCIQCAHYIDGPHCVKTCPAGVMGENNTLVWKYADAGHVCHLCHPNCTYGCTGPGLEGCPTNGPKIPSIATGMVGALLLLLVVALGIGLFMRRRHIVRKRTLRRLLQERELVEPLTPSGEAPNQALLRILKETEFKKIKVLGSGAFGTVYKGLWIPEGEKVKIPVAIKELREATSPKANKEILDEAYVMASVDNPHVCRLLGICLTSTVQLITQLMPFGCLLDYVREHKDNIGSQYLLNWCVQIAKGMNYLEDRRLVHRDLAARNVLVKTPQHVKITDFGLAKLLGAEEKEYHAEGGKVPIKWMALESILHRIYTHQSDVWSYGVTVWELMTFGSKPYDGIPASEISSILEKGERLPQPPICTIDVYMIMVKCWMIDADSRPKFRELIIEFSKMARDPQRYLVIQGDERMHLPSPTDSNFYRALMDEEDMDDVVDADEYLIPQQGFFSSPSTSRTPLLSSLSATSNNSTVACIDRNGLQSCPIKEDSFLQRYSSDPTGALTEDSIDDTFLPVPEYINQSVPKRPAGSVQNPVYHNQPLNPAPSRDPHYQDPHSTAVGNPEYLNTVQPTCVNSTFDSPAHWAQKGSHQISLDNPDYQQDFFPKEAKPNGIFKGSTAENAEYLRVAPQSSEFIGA

Take `N#Cc1c(-c2cc3ccccc3o2)ccnc1NCCc1ccccc1` [Compound 11, 4-(Benzofuran-2-yl)-2-(phenethylamino)nicotinonitrile]: the IC50 was 20.4 ± 1.6 µM in [1]; 46.1 ± 2.7 µM in assay [2]; 14.6 ± 1.3 µM in assay [3]; 18.8 ± 1.5 µM in assay [4]; 32.1 ± 1.9 µM in assay [5]; 94.5 ± 5.13 µM in [6]. In assay [7], 0.81 µM corresponded to half-maximal inhibition (IC50). The “Caspase-3 Conc.” value in assay [8] (ELISA, control 60.7) was determined as 440.08 pg/mL. For the same compound, the “Caspase-3 level, Fold” value in assay [8] (compared to the control) was determined as 7.3 fold. This compound also showed a Necrosis in [9] (control 0.15) of 1.23%. The Early apoptosis in assay [9] (control 0.16) is 6.89%. Further, the Late apoptosis in [9] (control 0.24) worked out at 8.13%. Further, in [9] (control 0.55), the “Apoptosis, Total” value worked out at 16.25%. Besides, the “%Pre/G1” value in assay [10] (control 0.55, '% Apoptosis' in Figure 6A) came to 16.25%. Besides, the “%G2/M” value in assay [10] (control 3.66) turned out to be 15.28%. Besides, the “%S” value in assay [10] (control 27.37) amounted to 21.36%. In addition, the “%G0/G1” value in assay [10] (control 66.42) came to 47.11%.
Turning to `CN(C)/C=C/C(=C(C#N)C#N)c1cc2ccccc2o1` [Compound 3, (E)-2-(1-(benzofuran-2-yl)-3-(dimethylamino)allylidene)malononitrile], the IC50 in [1] came out at 40 ± 2.5 µM; in assay [2] it was 10.8 ± 1 µM; in [3], 27.4 ± 1.8 µM; in assay [4], 44.5 ± 3.5 µM; in assay [5] it was 69 ± 3.9 µM; in assay [6], 63.1 ± 3.43 µM. Also, 0.93 µM corresponded to half-maximal inhibition in assay [7] (IC50). In addition, in assay [11] (24 h treatment, ELISA, control 63.51), the “Caspase-3 Conc.” value was 363.4 pg/mL. For the same compound, the “Caspase-3 level, Fold” value in assay [11] (compared to the control) is on record as 5.7 fold. In addition, the Late apoptosis in assay [12] (control 0.11) was determined as 5.79%. In addition, the Necrosis in assay [12] (control 0.12) worked out at 1.32%. Moreover, the Early apoptosis in assay [12] (control 0.16) was determined as 5.95%. Besides, in assay [12] (control 0.39), the “Apoptosis, Total” value stood at 13.06%. Also, in assay [13] (control 0.39, '% Apoptosis' in Figure 5A), the “%Pre/G1” value stood at 13.06%. In addition, in assay [13] (control 4.19), the “%G2/M” value was determined as 12.62%. Also, in [13] (control 25.21), the “%S” value was 20.91%. The “%G0/G1” value in assay [13] (control 70.21) was 53.41%.
